Like-named read-outs stand apart in the source and are kept apart here.
Columns and labels:
LTD4 receptors = target: T1, LTD4 receptors (Cavia porcellus, UniProt Q2NNR5); test: Antagonism of LTD4 (guinea pig ileum and trachea, pA2); conditions: *Estimated; negative log of KB; antagonist 30 minute incubation
T1 construct: A section of terminal ileum was removed, the lumen cleaned, and the tissue divided into 2.5 cm segments; from tissue; host or cells: ileum and trachea of guinea pig (ileum: male Hartley)
T1 sequence (Q2NNR5 1-340): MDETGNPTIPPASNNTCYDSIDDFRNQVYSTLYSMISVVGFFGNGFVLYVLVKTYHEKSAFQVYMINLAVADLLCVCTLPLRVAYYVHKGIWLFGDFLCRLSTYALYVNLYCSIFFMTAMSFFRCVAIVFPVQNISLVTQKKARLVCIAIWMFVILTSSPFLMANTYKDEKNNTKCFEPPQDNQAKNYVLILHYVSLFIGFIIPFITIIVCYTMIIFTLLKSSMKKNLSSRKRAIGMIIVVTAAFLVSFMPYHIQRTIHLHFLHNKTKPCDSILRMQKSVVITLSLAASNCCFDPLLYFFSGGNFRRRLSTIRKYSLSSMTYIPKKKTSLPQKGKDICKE
Method: Male, Hartley guinea pigs weighing 200-450 grams were killed by decapitation. A section of terminal ileum was removed, the lumen cleaned, and the tissue divided into 2.5 cm segments. The ilea were mounted in 10 ml tissue baths containing Krebs-bicarbonate solution of the following composition in mmoles/liter: KCl, 4.6; CaCl2 ·2H2 O, 1.2; KH2 PO4, 1.2; MgSO4 ·7H2O, 1.2; NaCl, 118.2; NaHCO3, 24.8; and dextrose, 10.0. The bath fluid was maintained at 37° C. and aerated with 95 percent oxygen and 5 percent CO2 In addition, the buffer contained 1×10^-6 M atropine to reduce ileal spontaneous activity. Isometric measurements were made with a Grass FT03C. force-displacement transducer and recorded on a Grass polygraph as change in grams of force. A passive force of 0.5 g was applied to the tissues. After an appropriate equilibration period, single submaximal control responses to pure LTD4 were obtained. Following a five minute exposure of the ileum to an experimental drug, the control concentration of LTD4 was added to the tissue bath. The response of the ileum to LTD4 in the presence of the drug was compared to the response in the absence of the drug.
A more detailed analysis of LTD4 antagonism was then made. In these experiments, cumulative concentration-response curves were obtained to LTD4 in guinea pig ileum and trachea. This was followed by a 30 minute incubation with various concentrations of the experimental drug. The concentration response curve to LTD4 was then repeated in the presence of the antagonist. Only one concentration of antagonist was used on a single tissue. KB values were calculated by the method of Furchgott [Ann. N.Y. Acad. Sci., 139, 553 (1967)] using the following equation. [formula]
Dose ratio refers to the concentration of agonist required to elicit 50 percent of the maximal response ED50) in the presence of the antagonist divided by the ED50 in the absence of the antagonist.

[1] = target: T2, specific receptor on the membrane of human neutrophils (leukotriene B4) (Homo sapiens, UniProt Q15722); test: Inhibition of Binding of ^3 H-LTB4 to Peripheral Human Neutrophils; conditions: read-out: LTB4 Binding Inhibition
T2 construct: Freshly-prepared buffy coat layers from two individuals were obtained from a local blood donor center; endogenous in cells; host or cells: intact human peripheral blood neutrophils from buffy coats of two donors
T2 sequence (Q15722 whole entry): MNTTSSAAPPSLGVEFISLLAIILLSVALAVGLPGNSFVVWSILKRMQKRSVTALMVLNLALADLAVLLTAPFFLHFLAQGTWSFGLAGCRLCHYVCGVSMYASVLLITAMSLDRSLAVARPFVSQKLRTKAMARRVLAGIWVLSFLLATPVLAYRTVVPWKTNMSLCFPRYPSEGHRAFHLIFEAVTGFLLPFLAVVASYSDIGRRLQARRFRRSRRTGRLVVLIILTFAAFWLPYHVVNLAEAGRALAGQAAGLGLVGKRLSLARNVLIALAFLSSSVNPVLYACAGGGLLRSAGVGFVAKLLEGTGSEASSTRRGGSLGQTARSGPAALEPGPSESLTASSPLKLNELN
Method: Cells used in the assay were isolated by standard techniques of centrifugation on Ficoll-Hypaque, dextran 70 sedimentation and hypotonic lysis. The following procedure was used. Freshly-prepared buffy coat layers from two individuals were obtained from a local blood donor center. The cells were mixed and diluted to 484 ml with phosphate buffered saline containing heparin (10 units/ml) and heat-inactivated calf serum (5%). This was divided into 20 ml aliquots and the aliquots layered on top of Ficoll-Paque (12 ml). The material was then centrifuged at 500 g for 40 minutes at room temperature. The resulting upper layer of platelets and mononuclear cells was discarded. The lower layer containing erythrocytes and neutrophils was retained. Buffer was added (1 ml per 4 ml of lower layer) and the suspension mixed. For each milliliter of this mixture, 0.33 ml of 6% Macrodex was added. After stirring, the cells were allowed to sediment for 1 hour at 37° C. The resulting erythrocyte pellet was discarded and the neutrophil enriched supernatant fluid centrifuged at 500 g for 10 minutes at 4° C. Erythrocytes still present in this cell pellet were lysed by incubating the cells with 5-8 ml ice-cold distilled water for 30-45 seconds. Subsequently, the volume was made up to 50 ml by addition of ice-cold buffer and the cells resuspended. The suspension was then centrifuged at 300 g for 10 minutes at 4° C. The cells were finally resuspended at a cell density of 2×10^7 cells/ml in the assay buffer This buffer consisted of Hanks' balanced salt solution and 0.1% ovalbumin (pH 7.3).
The amount of bound ^3 H-LTB4 was then measured and compared with the amount bound in the absence of test compound. The assay was carried out in microcentrifuge tubes by adding first 10 μl test compound dissolved in DMSO, followed by adding 20 μl ^3 H-LTB4 diluted in assay buffer, and finally adding 500 μl of the cell suspension. At the end of the 10 minutes incubation, 300 μl of a mixture of dibutyl and dinonyl phthalate (7:2) were added and the tubes centrifuged for 2 minutes in a microcentrifuge. The radioactivity bound to the cell pellet was measured by scintillation spectroscopy. Appropriate corrections for nonspecific bonding of ^3 H-LTB4 were made.

[2] = system: LTB4 induced cell aggregation (neutrophils); test: LTB4 Induced Aggregation Assay (neutrophils); assay type: cell-based, guinea pig; conditions: Cavia porcellus, Neutrophil; for inhibition at 1 µM: drug concentration 10^-6 M; for inhibition at 0.1 µM: drug concentration 10^-7 M; for inhibition at 10 µM: drug concentration 10^-5 M
Method: Neutrophils were elicited by intraperitoneally injecting 20 ml of Dulbecco's calcium and magnesium deficient phosphate buffered saline (PBS) containing 2% oyster glycogen into each of two male Hartley guinea pigs. Eighteen hours later, cells accumulating in the peritoneal cavity were harvested by washing the peritoneum with approximately 100 ml of PBS containing 10 units/ml of heparin. The cells were centrifuged at 200 g for 8 min. and the supernatant fluid discarded. Erythrocytes present in the pellet were lyzed by vigorous agitation of the cells in 9 ml of ice-cold distilled water for approximately 30 seconds. Physiological osmolarity was restored by adding 1.5 ml of 0.6 M KCl. Twelve milliliters of PBS were added and the resuspended cells centrifuged at 200 g for 8 min. at 4°. The pellet was resuspended in 5 ml PBS. The cell concentration was determined and additional buffer added to make the concentration […]; cells per ml.
The aggregation assay was carried out by measuring the amount of LTB4 induced cell aggregation with a Payton single channel aggregometer, model 300B. The apparatus was calibrated by placing a cuvette containing the cell suspension in it and adjusting the zero knob so that the recorder pen rested at 1 mV. A cuvette containing 20% less cells was then inserted into the aggregometer and the output knob adjusted so that the recorder pen rested at 9 mV. With these settings an 8 mV change causes the recorder pen to move 200 mm. When conducting an assay, 0.5 ml of cell suspension (5×10^6 cells) was added to each cuvette. Five microliters of a solution of test compound were then added. Most compounds were initially dissolved in DMSO at 1×10^-2 M and then diluted appropriately with PBS so that the test compound concentration was 1×10^-5 to 1×10^-7 M and the test DMSO concentration was 0.1% or less. A few of the more water insoluble compounds were first dissolved in DMSO at 1 to 6×10^-3 M and then diluted appropriately with PBS. The test concentration of DMSO was never higher than 1%. After a 2 minute equilibration period of cells and test compound, 5 μl of a solution containing CaCl2 (100 mM) and MgCl2 (50 mM) were added. One minute later, 5 μ l of PBS containing LTB4 (3×10^-7 M) were added. The change occurring in the amount of light transmitted during the subsequent minute was measured. […] During a typical experiment, several measurements of the amount of aggregation induced by LTB4 were made and an average value determined. The effect of a test compound on this aggregation was determined by the following formula: [formula]

[3] = drug concentration 10^-5 M, 0.1-0.2 nM ^3 H-LTB4, 10 minutes at 4° C
[4] = drug concentration 10^-6 M, 0.1-0.2 nM ^3 H-LTB4, 10 minutes at 4° C
[5] = drug concentration 10^-7 M, 0.1-0.2 nM ^3 H-LTB4, 10 minutes at 4° C

| Compound | Kb (LTD4 receptors) | inhibition at 10 µM [1, 3] | inhibition at 1 µM [1, 4] | inhibition at 0.1 µM [1, 5] | inhibition at 1 µM [2] | inhibition at 0.1 µM [2] | inhibition at 10 µM [2] | inhibition at 0.1 µM [1] | inhibition at 1 µM [1] | inhibition at 10 µM [1] |
| --- | --- | --- | --- | --- | --- | --- | --- | --- | --- | --- |
| CCCCCCCCCCOc1ccc(Oc2cccc(C(=O)O)c2)cc1CCC(=O)O [Example 56, 5-(3-Carboxyphenoxy)-2-(decyloxy)benzenepropanoic acid] | 479 nM | 88% | 41% | – | – | – | – | – | – | – |
| CCCCCCOc1ccc(C(O)c2cccc(C(=O)O)c2)cc1CC(=O)O (stereo not drawn) [Example 48, 5-[(3--Carboxyphenyl)hydroxymethyl]-2-(hexyloxy)benzeneacetic acid] | 7940 nM | 10% | -10% | – | – | – | – | – | – | – |
| C=C(c1cccc(C(=O)O)c1)c1ccc(OCCCCCCCCCC)c(CCC(=O)O)c1 [Example 54, 5-[1-(3-Carboxyphenyl)ethenyl]-2-(decyloxy)benzenepropanoic acid] | – | 71% | 37% | -3% | 88% | 12% | – | – | – | – |
| COc1ccc(C=CCCCCOc2ccc(C(=O)c3cccc(C(=O)O)c3)cc2CCC(=O)O)cc1 [Example 79, 5-(3-Carboxybenzoyl)-2-{[6-(4-methoxyphenyl)-5-hexenyl]oxy}benzenepropanoic acid] | – | – | – | – | 87% | 46% | 92% | 92% | 97% | 100% |
| O=C(O)CCc1cc(C(=O)c2cccc(C(=O)O)c2)ccc1OCCCCCCc1ccccc1 [Example 75, 5-(3-Carboxybenzoyl)-2-[6-(phenylhexyl)-oxy]benzenepropanoic acid] | – | – | 82% | 36% | 69% | 15% | 93% | – | – | 97% |
| CCCCCCCCCCOc1ccc(C(=O)c2cccc(C(=O)O)c2)cc1CCCC(=O)O [Example 23, 5-(3-Carboxybenzoyl)-2-(decyloxy)benzenebutanoic acid] | – | 87% | 52% | 4% | 46% | – | 92% | – | – | – |
| CCCCCCCCCCOc1ccc(C(=O)c2cccc(Cc3nnn[nH]3)c2)cc1CCC(=O)O [Example 25, 2-(Decyloxy)-5-[3-(1H-tetrazol-5-ylmethyl)benzoyl]benzenepropanoic acid] | 631 nM | – | – | – | – | – | – | – | – | – |
| C[S+]([O-])c1ccc(C=CCCCCOc2ccc(C(=O)c3cccc(C(=O)O)c3)cc2CCC(=O)O)cc1 (stereo not drawn) [Example 90, 5-(3-Carboxybenzoyl)-2-{[6-(4-methylsulfinylphenyl)-5-hexenyl]oxy}benzenepropanoic acid] | – | 98% | 96% | 90% | 79% | 9% | 85% | – | – | – |
| CCCCCCCCCCOc1ccc(C(=O)c2cccc(C(=O)OCC)c2)cc1CCCC(=O)OCC [Example 7, 2-(Decyloxy)-5-[3-(ethoxycarbonyl)benzoyl]benzenebutanoic acid, ethyl ester] | 158 nM | – | – | – | – | – | – | – | – | – |

More lines, main results first:

| Kb (LTD4 receptors) | inhibition at 10 µM [1, 3] | inhibition at 1 µM [1, 4] | inhibition at 0.1 µM [1, 5] | Compound | inhibition at 1 µM [2] | inhibition at 0.1 µM [2] | inhibition at 10 µM [2] | inhibition at 0.1 µM [1] | inhibition at 1 µM [1] | inhibition at 10 µM [1] |
| --- | --- | --- | --- | --- | --- | --- | --- | --- | --- | --- |
| – | 91% | 55% | 13% | CCCCCCCCCCOc1ccc(C(O)c2cccc(C(=O)O)c2)cc1CCC(=O)O (stereo not drawn) [Example 46, 5-[(3--Carboxyphenyl)hydroxymethyl]-2-(decyloxy)benzenepropanoic acid] | 73% | 7% | – | – | – | – |
| 1910 nM | – | – | – | CCCCCCCCCCOc1ccc(C(=O)Cc2ccccc2C(=O)O)cc1CCC(=O)O [Example 34, 5-[(2-Carboxyphenyl)acetyl]-2-(decyloxy)benzenepropanoic acid] | – | – | – | – | – | – |
| 575 nM | – | – | – | CCOC(=O)CCc1cc(C(=O)c2cccc(C(=O)OCC)c2)ccc1OCCCCCCc1ccc(Cl)cc1 [Example 66, 2-{[6-(4-Chlorophenyl)hexyl]oxy}-5-[3-(ethoxycarbonyl)benzoyl]benzenepropanoic acid, ethyl ester] | – | – | – | – | – | – |
| – | 106% | 91% | 42% | O=C(O)CCc1cc(C(=O)c2cccc(C(=O)O)c2)ccc1OCCCCCCc1ccc(Cl)cc1 [Example 81, 2-{[6-(4-Chlorophenyl)hexyl]oxy}-5-(3-carboxybenzoyl)benzenepropanoic acid] | 63% | 8% | 76% | – | – | – |
| – | 59% | 2% | – | CCCCCCCCCCOc1ccc(C(O)c2ccc(C(=O)O)cc2)cc1CC(=O)O (stereo not drawn) [Example 47, 5-[(4-Carboxyphenyl)hydroxymethyl]-2-(decyloxy)benzeneacetic acid] | 50% | 2% | 80% | – | – | – |
